In assay [1] the target is T1, mutant MGL (mut-MGLL 11-313 L179S L186S) (Homo sapiens, UniProt Q99685, L169S/L176S).
T1 construct: purified mutant MGL (mut-MGLL 11-313 L179S L186S)
T1 sequence (Q99685 1-303 L169S/L176S): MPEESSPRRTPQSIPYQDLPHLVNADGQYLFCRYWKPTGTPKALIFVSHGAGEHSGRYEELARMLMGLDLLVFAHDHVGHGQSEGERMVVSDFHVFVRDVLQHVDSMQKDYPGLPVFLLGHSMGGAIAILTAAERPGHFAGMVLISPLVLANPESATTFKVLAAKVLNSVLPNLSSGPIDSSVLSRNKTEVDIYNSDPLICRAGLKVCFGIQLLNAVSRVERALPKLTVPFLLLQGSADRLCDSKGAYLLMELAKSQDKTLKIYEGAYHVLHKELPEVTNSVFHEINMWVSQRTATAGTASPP
Kind of assay: MGL Enzyme Activity Assay, purified mutant MGL, 4MU-B substrate. The settings on record: mutant MGL 5 nM, 4MU-B 10 μM, 37° C.; read-out: MGL mutant inh IC50. Type of assay: biochemical. In short, it runs like this:
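Purified mutant MGL (5 nM final) with 10 μM 4MU-B in 20 mM PIPES pH 7.0, 150 mM NaCl, 0.001% Tween 20; compounds 17 to 0.0003 μM final. Fluorescence (ex 335/em 440 nm) followed 5 min at 37 °C; IC50 from fit of fractional activity versus inhibitor concentration.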

Assay [2] deals with T2, wild type MGL (wt-MGLL 6H-11-313) (Homo sapiens, UniProt Q99685).
T2 construct: purified wild type MGL (wt-MGLL 6H-11-313); 6H (hexahistidine) (N)
T2 sequence (Q99685 1-303): T1 sequence (Q99685 1-303 L169S/L176S) with S169L, S176L
Kind of assay: MGL Enzyme Activity Assay, purified wild type MGL, 4MU-B substrate. Type of assay: biochemical. The note with it: wild type MGL 5 nM, 4MU-B 10 μM, 37° C.; read-out: MGL wild type inh IC50. The procedure: All rate-based assays were performed in black 384-well polypropylene PCR microplates (Abgene) in a total volume of 30 μL. […] Final compound concentrations ranged from 17 to 0.0003 μM.
The IC50 values for the following compounds were determined using Microsoft Office Excel from a fit of the equation to the concentration-response plot of the fractional activity as a function of inhibitor concentration.

For assay [3], the target named is T3, MGL (Rattus norvegicus, UniProt Q8R431).
T3 construct: one g rat brain was homogenized using a Polytron homogenizer; from tissue; host or cells: rat brain homogenate
T3 sequence (Q8R431 1-303): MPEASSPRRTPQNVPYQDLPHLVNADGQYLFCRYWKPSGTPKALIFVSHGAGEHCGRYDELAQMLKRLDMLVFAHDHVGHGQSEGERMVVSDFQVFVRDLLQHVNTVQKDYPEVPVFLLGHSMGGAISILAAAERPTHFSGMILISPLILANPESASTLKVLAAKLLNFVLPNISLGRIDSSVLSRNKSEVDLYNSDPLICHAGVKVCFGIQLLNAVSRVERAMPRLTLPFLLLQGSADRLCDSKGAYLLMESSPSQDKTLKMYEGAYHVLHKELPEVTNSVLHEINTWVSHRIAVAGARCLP
Kind of assay: 2-AG Accumulation Assay in rat brain homogenate. Type of assay: biochemical. The note with it: percent of vehicle; for activity at 1 µM: compound @1 µM, read-out: Rat Brain 2AG % VehCntrl (%) @1 µM; for activity at 10 µM: compound @10 µM, read-out: Rat Brain 2AG % VehCntrl (%) @10 µM.

For assay [4], the target named is T4, mutant MGL (Homo sapiens, UniProt Q99685, L169S/L176S).
T4 construct: purified mutant MGL (mut-MGLL 11-313 L179S L186S)
T4 sequence (Q99685 1-303 L169S/L176S): T1 sequence (Q99685 1-303 L169S/L176S)
Kind of assay: MGL ThermoFluor Assay - Mutant. Type of assay: binding. The settings on record: 0.07 mg/ml mutant MGL, 100 μM ANS, pH 7.0. In short, it runs like this:
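Thermal-shift binding with 0.07 mg/ml L169S/L176S mutant MGL, 100 μM 1,8-ANS, 200 mM NaCl, 0.001% Tween-20, 50 mM PIPES pH 7.0, heated 40–90 °C at 1 °C/min.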

The subject of assay [5] is CFA-Induced Paw Radiant Heat Hypersensitivity. Kind of assay: CFA-Induced Paw Radiant Heat Hypersensitivity. The note with it: rat, HPβCD; for inhibition in vivo at 30 mg/kg / inhibition in vivo at 10 mg/kg: po, 5 h, group mean values, read-out: Method 1: peak % reversal; for Method 2: peak % reversal: individual animal values. Type of assay: in vivo. The procedure:
Each rat was placed in a test chamber on a warm glass surface and allowed to acclimate for approximately 10 min. A radiant thermal stimulus (beam of light) was focused through the glass onto the plantar surface of each hind paw in turn. The thermal stimulus was automatically shut off by a photoelectric relay when the paw was moved or when the cut-off time was reached (20 sec for radiant heat at ˜5 amps). An initial (baseline) response latency to the thermal stimulus was recorded for each animal prior to the injection of complete Freund's adjuvant (CFA). Twenty-four hours following intraplantar CFA injection, the response latency of the animal to the thermal stimulus was re-evaluated and compared to the animal's baseline response time. […] Immediately following the post-CFA latency assessment, the indicated test compound or vehicle was administered orally. Post-compound treatment withdrawal latencies were assessed at fixed time intervals, typically 30, 60, 120, 180, and 300 min.
The percent reversal (% R) of hypersensitivity was calculated in one of two different ways:
1) using group mean values or 2) using individual animal values. More specifically:
Method 1. For all compounds, the % R of hypersensitivity was calculated using the mean value for groups of animals at each time point according to the following formula: % reversal=[(group treatment response−group CFA response)/(group baseline response−group CFA response)]×100 Results were given for the maximum % reversal observed for each compound at any time point tested.
Method 2. For some compounds, the % R of hypersensitivity was calculated separately for each animal according to the following formula: % reversal=[(individual treatment response−individual CFA response)/(individual baseline response−individual CFA response)]×100.
Results are given as a mean of the maximum % reversal values calculated for each individual animal.

The mark [6] stands for this setting: 30 mg/kg p.o., last time point 300 min (180 min for Cpd 17, 77).
[7] abbreviates: 10 mg/kg p.o., last time point 300 min.

Structures are written as SMILES. Residue numbers refer to the chain shown, from its start.

By IC50 is commonly meant the point on the concentration scale where inhibition reaches its midpoint. By Kd is commonly meant the equilibrium constant for the complex coming apart. A higher Kd goes with a looser complex. Turning to `O=C(NC1CN(C2CN(C(=O)c3ccc(-c4cccc(C(F)(F)F)c4)cc3)C2)C1)c1cscn1` [Cpd 2, N-(1′-{[3′-(Trifluoromethyl)biphenyl-4-yl]carbonyl}-1,3′-biazetidin-3-yl)-1,3-thiazole-4-carboxamide], the results for the IC50 in assay [1] and in assay [2] were 6 nM and 8 nM, respectively. Moreover, the activity at 1 µM in assay [3] stood at 620%. Moreover, the Kd in assay [4] came to 22 nM. Further, the inhibition in vivo at 30 mg/kg in assay [5] (setting [6]) was 47.9%.

In the case of `O=C(c1sc2cc(C(F)(F)F)ccc2c1Cl)N1CC(N2CC(N3Cc4ccccc4C3=O)C2)C1` [Cpd 99, 2-(1′-{[3-Chloro-6-(trifluoromethyl)-1-benzothiophen-2-yl]carbonyl}-1,3′-biazetidin-3-yl)-2,3-dihydro-1H-isoindol-1-one], the IC50 in assay [1] and in assay [2] was < 5 nM in each case. Besides, the activity at 1 µM in assay [3] is 449%. Also, binding in assay [4] was put at a Kd of 2.7 nM. For the same molecule, the inhibition in vivo at 30 mg/kg in assay [5] (setting [6]) was 27.6%.

For the molecule `Cc1c(C(=O)N2CC(N3CC(NC(=O)c4cscn4)C3)C2)sc2cc(C(F)(F)F)ccc12` [Cpd 67, N-(1′-{[3-Methyl-6-(trifluoromethyl)-1-benzothiophen-2-yl]carbonyl}-1,3′-biazetidin-3-yl)-1,3-thiazole-4-carboxamide], the 50% inhibitory concentration (IC50) in assay [2] was < 5 nM. Moreover, the activity at 1 µM in assay [3] turned out to be 434%. Besides, the Kd in assay [4] came out at 10.7 nM. Moreover, the inhibition in vivo at 30 mg/kg in assay [5] (setting [6]) is 35.7%.

Take `Cc1c(C(=O)N2CC(N3CC(NC(=O)c4nccs4)C3)C2)sc2cc(C(F)(F)F)ccc12` [Cpd 56, N-(1′-{[3-Methyl-6-(trifluoromethyl)-1-benzothiophen-2-yl]carbonyl}-1,3′-biazetidin-3-yl)-1,3-thiazole-2-carboxamide]: the IC50 in assay [2] amounted to 6 nM. Also, in assay [3], the activity at 1 µM stood at 413%. Binding in assay [4] was put at a Kd of 2.15 nM. The inhibition in vivo at 30 mg/kg in assay [5] (setting [6]) was -1.3%.

As to `O=C(NC1CN(C2CN(C(=O)c3ccc4c(ccn4-c4ccc(C(F)(F)F)cc4)c3)C2)C1)c1nccs1` [Cpd 1, N-[1′-({1-[4-(Trifluoromethyl)phenyl]-1H-indol-5-yl}carbonyl)-1,3′-biazetidin-3-yl]-1,3-thiazole-2-carboxamide], in assay [1], the IC50 amounted to 5 nM. In assay [2], the IC50 is < 5 nM. In assay [3], the activity at 1 µM amounted to 370% and the activity at 10 µM came to 639%. The molecule further displayed a Kd in assay [4] of 6 nM. Moreover, in assay [5] (setting [7]), the inhibition in vivo at 10 mg/kg is -18.6% and the “Method 2: peak % reversal” value is −19.0%. In assay [5] (setting [6]), the inhibition in vivo at 30 mg/kg is 10.3% and the “Method 2: peak % reversal” value is recorded as 7.4%.

In the case of `O=C(NC1CN(C2CN(C(=O)c3ccc(-c4cccc(C(F)(F)F)c4)cc3)C2)C1)c1nccs1` [Cpd 5, N-(1′-{[3′-(Trifluoromethyl)biphenyl-4-yl]carbonyl}-1,3′-biazetidin-3-yl)-1,3-thiazole-2-carboxamide], in assay [1], the IC50 stood at 7 nM. The IC50 in assay [2] was 15 nM. In assay [3], the activity at 1 µM was 347% and the activity at 10 µM turned out to be 921%. Besides, in assay [4], the Kd came to 11.2 nM. In assay [5] (setting [6]), the inhibition in vivo at 30 mg/kg came out at 57.4% and the “Method 2: peak % reversal” value amounted to 55.8%.

On to `O=C(c1ccc(-c2ccc(C(F)(F)F)s2)cc1)N1CC(N2CC(N3Cc4ccccc4C3=O)C2)C1` [Cpd 76, 2-[1′-({4-[5-(Trifluoromethyl)thiophen-2-yl]phenyl}carbonyl)-1,3′-biazetidin-3-yl]-2,3-dihydro-1H-isoindol-1-one], for which the IC50 in assay [1] was 15 nM. Further, the IC50 in assay [2] is < 5 nM. Besides, in assay [3], the activity at 1 µM came to 204% and the activity at 10 µM amounted to 725%. The same molecule registered a Kd in assay [4] of 10 nM. For the same molecule, in assay [5] (setting [7]), the inhibition in vivo at 10 mg/kg stood at 15.7% and the “Method 2: peak % reversal” value worked out at 26.7%. In assay [5] (setting [6]), the inhibition in vivo at 30 mg/kg is 17.1% and the “Method 2: peak % reversal” value came to 17.7%.

For the molecule `O=C(NC1CN(C2CN(C(=O)c3ccc4nc(-c5ccccc5)oc4c3)C2)C1)c1nccs1` [Cpd 17, N-{1′-[(2-Phenyl-1,3-benzoxazol-6-yl)carbonyl]-1,3′-biazetidin-3-yl}-1,3-thiazole-2-carboxamide], the IC50 in assay [1] is 48 nM. For the same molecule, the IC50 in assay [2] was determined as 37 nM. Also, in assay [3], the activity at 1 µM was determined as 355% and the activity at 10 µM amounted to 486%. The molecule further came in with a Kd in assay [4] of 333 nM. In assay [5] (setting [6]), the inhibition in vivo at 30 mg/kg was 27% and the “Method 2: peak % reversal” value is on record as 31.5%.

In the case of `O=C(c1ccc2oc(-c3ccccc3)nc2c1)N1CC(N2CC(N3Cc4ccccc4C3=O)C2)C1` [Cpd 77, 2-{1′-[(2-Phenyl-1,3-benzoxazol-5-yl)carbonyl]-1,3′-biazetidin-3-yl}-2,3-dihydro-1H-isoindol-1-one], in assay [1], the IC50 worked out at 16 nM. Also, in assay [2], the IC50 came out at 31 nM. The activity at 10 µM in assay [3] was found to be 478%. In addition, the Kd in assay [4] was determined as 100 nM. Moreover, in assay [5] (setting [6]), the inhibition in vivo at 30 mg/kg came out at 9.9% and the “Method 2: peak % reversal” value is 6.9%.

Regarding `Cc1c(C(=O)N2CC(N3CC(N4Cc5ccccc5C4=O)C3)C2)sc2cc(C(F)(F)F)ccc12` [Cpd 101, 2-(1′-{[3-Methyl-6-(trifluoromethyl)-1-benzothiophen-2-yl]carbonyl}-1,3′-biazetidin-3-yl)-2,3-dihydro-1H-isoindol-1-one], the IC50 in assay [2] worked out at 6 nM. In addition, in assay [3], the activity at 1 µM is 534%. In assay [4], this molecule yielded a Kd of 4 nM. Moreover, in assay [5] (setting [6]), the inhibition in vivo at 30 mg/kg turned out to be 6.1%.
